# Assay results from patent publication US20240252576A1, “Application Method of Radix Paeoniae Alba and Dendrobium Officinale for Preparing Drug for Treatment of Hypertension” (Hangzhou Danhe Pharmaceutical Co., Ltd., priority 2018, published 2024).
# What was measured:
# [1] = test system: hereditary hypertension rats (SHR); assay: Experiment 1: hypotensive effect of alcohol-water dual-extraction of Radix Paeoniae Alba on SHR, tail arterial blood pressure; assay type: in vivo, rat; settings: 15 mg/Kg body weight
# From the text: Rats: old age (over 48 weeks old) hereditary hypertension rats (SHR) and the normal controls were Wistar rats. Rat blood pressure measurement: BP-98 A type non-invasive tail arterial blood pressure measuring instrument, Softron Co., Ltd. (Japan). Grouping treatment: All rats were adaptively fed for a week, measured with blood pressure and weight, and set into groups. SHR rats were divided into alcohol-water dual-extraction of Radix Paeoniae Alba large dosage group for the dosage of 3.2 g/kg body weight, alcohol-water dual-extraction of Radix Paeoniae Alba medium dosage group for the dosage of 0.8 g/kg body weight, alcohol-water dual-extraction of Radix Paeoniae Alba small dosage group for the dosage of 0.2 g/kg body weight, alcohol extraction of Radix Paeoniae Alba group for the dosage of 0.8 g/kg body weight, water extraction of Radix Paeoniae Alba group for the dosage of 0.8 g/kg body weight, Radix Paeoniae Alba powder group for the dosage of 0.8 g/kg body weight; utilizing gastric infusion; hypertension model control group receives equal amount of physiological saline; Irbesartan control group receives 15 mg/Kg body weight of Irbesartan; and normal control group receives equal amount of physiological saline. Each group has 8 rats. The treatment last for 3 weeks (multiple of 3-12 weeks of treatments are performed, the results can be repeated, and typical experimental results are reported below). Blood pressure measurement: The Rats were pre-heated to 38° C. for 5-10 mins to avoid less blood flow of the tail that affects the pressure measurement. Three measurements are continuously carried out as the rat was in an awake and quiet state. The average value of the 3 measurements was considered as the blood pressure of the rat.
# [2] = test system: hereditary hypertension rats (SHR); assay: Experiment 2: hypotensive effect of the sample of the Embodiment 1 on SHR, tail arterial blood pressure; assay type: in vivo, rat; settings: 15 mg/Kg body weight
# From the text: Rats: old age (over 48 weeks old) hereditary hypertension rats (SHR) and the normal controls were Wistar rats. Rat blood pressure measurement: BP-98 A type non-invasive tail arterial blood pressure measuring instrument, Softron Co., Ltd. (Japan). 1. Grouping treatment: All rats were adaptively fed for a week, measured with blood pressure and weight, and set into groups. SHR rats were grouped: sample of the Embodiment 1 (alcohol-water dual-extraction of Radix Paeoniae Alba with Dendrobium Officinale powder added)-large dosage group for the dosage of 3.5 g/kg body weight, sample of the Embodiment 1-medium dosage group for the dosage of 1.4 g/kg body weight, sample of the Embodiment 1-small dosage group for the dosage of 0.35 g/kg body weight, Dendrobium Officinale powder for the dosage of raw medicine of 0.8 g/kg body weight (which is the same as the raw medicine amount of the Dendrobium Officinale powder (0.8 g/kg body weight) contained in 1.4 g/Kg body weight of the sample of the Embodiment 1), alcohol-water dual-extraction of Radix Paeoniae Alba for the dosage of raw medicine of 0.6 g/kg body weight (which is the same as the raw medicine amount of the Radix Paeoniae Alba (0.6 g/kg body weight) contained in 1.4 g/Kg body weight of the sample of the Embodiment 1); utilizing gastric infusion; hypertension model control group receives equal amount of physiological saline; Irbesartan control group receives 15 mg/Kg body weight of Irbesartan; and normal control group receives equal amount of physiological saline. Each group has 8 rats. The treatment last for 3 weeks (multiple of 3-12 weeks of treatments are performed, the results can be repeated, and typical experimental results are reported below). 2. Blood pressure measurement: The Rats were pre-heated to 38° C. for 5-10 mins to avoid less blood flow of the tail that affects the pressure measurement. Three measurements are continuously carried out as the rat was in an awake and quiet state. The average value of the 3 measurements was considered as the blood pressure of the rat.
# [3] = test system: adult sitting and lying blood pressure; assay: Clinical test data on the instructions of Irbesartan (Aprovel); assay type: in vivo, human; settings: 150-300 mg daily for adults
# [4] = test system: adult sitting and lying blood pressure; settings: adult daily dosage of 150-300 mg, cited from earlier work
# [5] = test system: normal Wistar rat; assay: Experiment 3: blood pressure effect of the sample of the Embodiment 1 on normal rats; assay type: in vivo; settings: 5 mg medicine/kg body weight; for diastolic pressure / systolic pressure: normal Wistar rats
# Experimental: Rat: 12 Weeks Old Normal Wistar Rat.
# Rat blood pressure measurement: BP-98 A type non-invasive tail arterial blood pressure measuring instrument, Softron Co., Ltd. (Japan).
# Grouping treatment: All rats were adaptively fed for a week, measured with blood pressure and weight, and set into groups. […] Ten rats for each group, treating for 2 weeks.
# Blood pressure measurement: The Rats were pre-heated to 38° C. for 5-10 mins to avoid less blood flow of the tail that affects the pressure measurement. Three measurements are continuously carried out as the rat was in an awake and quiet state. The average value of the 3 measurements was considered as the blood pressure of the rat. The blood pressure is measured prior to the treatment and 2 hours after each administration every week.
# [6] = Treated for 1 Week, 2 hours after administration
# [7] = Treated for 2 Weeks, 2 hours after administration
# [8] = Treated for 3 Weeks, 2 hours after administration
# [9] = Treat 3 weeks, 24 hrs, 15 mg/kg
# [10] = sitting and lying blood pressure
smiles,measurement,setting,value
CCCCC1=NC2(CCCC2)C(=O)N1Cc1ccc(-c2ccccc2-c2nnn[nH]2)cc1 [Irbesartan],diastolic pressure,[1]; Before Treatment,166.7 ± 4.21 ^ mmHg
same,systolic pressure,[1]; Before Treatment,215.2 ± 4.45 ^ mmHg
same,diastolic pressure,[1]; First Treated,155.2 ± 3.25 mmHg
same,systolic pressure,[1]; First Treated,181.6 ± 3.12 mmHg
same,diastolic pressure,[1]; [6],150.8 ± 2.89 mmHg
same,systolic pressure,[1]; [6],180.4 ± 3.56 mmHg
same,diastolic pressure,[1]; [7],151.8 ± 2.71 mmHg
same,systolic pressure,[1]; [7],178.6 ± 2.04 mmHg
same,diastolic pressure,[1]; [8],152.9 ± 2.89 mmHg
same,systolic pressure,[1]; [8],177.8 ± 2.12 mmHg
same,diastolic pressure,[2]; Before Treatment,166.7 ± 4.21 ^ mmHg
same,systolic pressure,[2]; Before Treatment,215.3 ± 5.87 ^ mmHg
same,diastolic pressure,"[2]; Treat 1 time, 2 hrs",150.1 ± 3.25 mmHg
same,systolic pressure,"[2]; Treat 1 time, 2 hrs",182.4 ± 3.89 mmHg
same,diastolic pressure,"[2]; Treat 1 time, 24 hrs",156.6 ± 3.57^Δ mmHg
same,systolic pressure,"[2]; Treat 1 time, 24 hrs",198.7 ± 3.61 mmHg
same,diastolic pressure,"[2]; Treat 1 week, 2 hrs",149.7 ± 2.36 mmHg
same,systolic pressure,"[2]; Treat 1 week, 2 hrs",181.2 ± 3.34 mmHg
same,diastolic pressure,"[2]; Treat 1 week, 24 hrs",155.3 ± 2.36 mmHg
same,systolic pressure,"[2]; Treat 1 week, 24 hrs",197.8 ± 2.87 mmHg
same,diastolic pressure,"[2]; Treat 2 weeks, 2 hrs",147.4 ± 3.46 mmHg
same,systolic pressure,"[2]; Treat 2 weeks, 2 hrs",177.5 ± 2.23 mmHg
same,diastolic pressure,"[2]; Treat 2 weeks, 24 hrs",156.2 ± 3.25 mmHg
same,systolic pressure,"[2]; Treat 2 weeks, 24 hrs",199.9 ± 2.36 mmHg
same,diastolic pressure,"[2]; Treat 3 weeks, 2 hrs, 15 mg/kg",149.5±3.24 mmHg
same,systolic pressure,"[2]; Treat 3 weeks, 2 hrs, 15 mg/kg",178.9±3.87 mmHg
same,diastolic pressure,[2]; [9],154.1±2.08 mmHg
same,systolic pressure,[2]; [9],198.7±2.24 mmHg
same,"hypotensive extent in the hypotensive peak, diastolic pressure",[3]; calculated from intermediate values 6.5 mmHg/0.7,9.29 mmHg
same,"hypotensive extent in the hypotensive peak, systolic pressure",[3]; calculated from intermediate values 10.5 mmHg/0.7,15.00 mmHg
same,ratio of the hypotensive valley and peak,[4],60-80%
same,"average hypotensive valley value, diastolic",[4]; [10],5-8 mmHg
same,"average hypotensive valley value, systolic",[4]; [10],8-13 mmHg
"CCOC(=O)C1=C(COCCN)NC(C)=C(C(=O)OC)C1c1ccccc1Cl (stereo not shown) [Norvasc, amlodipine besylate]",hypotensive effect to the normal blood pressure rats,[5],triggered relatively great hypotensive effect
same,diastolic pressure,[5]; Before Treatment,99.2 ± 4.87 mmHg
same,systolic pressure,[5]; Before Treatment,137.6 ± 5.46 mmHg
same,diastolic pressure,[5]; [6],71.8 ± 3.76 mmHg
same,systolic pressure,[5]; [6],95.7 ± 4.69 mmHg
same,diastolic pressure,[5]; [7],74.5±2.76 mmHg
same,systolic pressure,[5]; [7],99.2±5.75 mmHg
